# Columns and labels:
# [1] = test system: KMS-11 multiple myeloma cells; assay type: in vivo; details: 3 mg/kg intravenous, 10 days; SCID mice
# Method: Two different multiple myeloma models were used. Experimental protocols and methods were performed by Accelera (Nerviano, Italy) in accordance with guidelines and with permission from the local ethics committee (Nerviano Medical Sciences (NMS) Ethic Committee). All experimental protocols were approved by the Nerviano Medical Sciences (NMS) Ethic Committee. Study director was Marina Ciomei. SCID female mice were obtained from Charles River, Italy. Body weights at the day of tumor implant were between 19 and 22 grams. Treatment started at day 7 after injection of tumor cells and continued for 10 consequtive days. Mice were monitored daily for mortality and clinical signs. In the KMS-11 model, antitumor efficacy was evaluated in terms of survival increase respect to control. In the RPMI8226 model, the growth of subcutaneous tumors was recorded. […] A gray-scale image of the mice was captured, followed by an overlay of a bioluminescence map representing the spatial distribution of photons detected from cleaved luciferin in the cancer cells expressing luciferase. Signal intensity was quantified using a customized version of the IGOR Pro version 4.09A Software (WaveMetrics, Inc., Lake Oswego, OR) called Living Image version 3.00 (Xenogen). Photon emission was measured as whole-body radiance and the individual regions of interest (ROIs) were manually selected. […]
# [2] = set-up: method as in PMID 25854145; details: cited from earlier work
# USP14 [3] = biological target: T1, USP14 (Homo sapiens, UniProt P54578); assay: SPR binding to recombinant USP14, CM7 chip; details: protein from Karolinska Institute Protein Science Facility, read-out: USP14(K) KD
# T1 sequence (P54578 whole entry): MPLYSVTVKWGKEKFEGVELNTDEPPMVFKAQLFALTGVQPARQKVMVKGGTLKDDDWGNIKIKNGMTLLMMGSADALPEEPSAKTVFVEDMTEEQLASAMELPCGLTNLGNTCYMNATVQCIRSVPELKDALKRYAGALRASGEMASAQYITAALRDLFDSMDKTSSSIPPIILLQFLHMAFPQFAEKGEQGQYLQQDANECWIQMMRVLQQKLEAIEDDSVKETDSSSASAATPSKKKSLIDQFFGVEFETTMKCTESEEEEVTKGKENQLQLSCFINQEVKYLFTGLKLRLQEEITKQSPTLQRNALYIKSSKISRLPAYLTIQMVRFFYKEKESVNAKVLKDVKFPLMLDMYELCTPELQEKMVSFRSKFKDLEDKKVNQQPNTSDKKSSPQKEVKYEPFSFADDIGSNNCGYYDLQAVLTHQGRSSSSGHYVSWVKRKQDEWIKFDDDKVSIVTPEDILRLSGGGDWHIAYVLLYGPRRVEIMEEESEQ
# Excerpt: A BIACORE T200 was used for characterization of the interaction between compounds and USP14, UCHL5 and 26S proteasome. The standard BIACORE protocols were used for NTA chip (Ni/His-tag immobilization) and CM7 chip for compound interaction studies with slight modification described below. The x6 his-tagged USP14 and UCHL5 proteins were coupled to a Series S NTA BIACORE sensor chip in the BIACORE T200 using the his-tags for adherence of the proteins to the surface and an amine coupling procedure for covalent attachment to the chip surface. NTA chip was cleaned using three 500 μM EDTA injections followed by an injection of 500 μM Ni^2+ and activation of the chip surface with EDC/NHS injection according to BIACORE standard methods. Each chip has four separate areas, which were handled separately during the immobilization procedure. Area 1 was used as blank reference surface, area 2–4 was coupled with investigated recombinant proteins or complexes. Proteins were diluted in running buffer (10 mM HEPES, 150 mM NaCl, 0,005% Tween 20) to typically 10 μg/ml before injection(1 mL) over the prepared surfaces. […] The immobilization procedure was followed by injections of compound concentration series of VLX1570. […] Rmax and KD were calculated using Langmuir binding isotherms as provided in the Biacore software.
# proteasome DUB activity = test system: proteasome DUB activity; set-up: method as in PMID 25854145; details: competitive inhibitor; read-out: IC50, inhibition of proteasome DUB activity in vitro; cited from earlier work
# USP14 [4] = biological target: T1, USP14; assay: SPR binding to recombinant USP14, NTA chip
# Excerpt: A BIACORE T200 was used for characterization of the interaction between compounds and USP14, UCHL5 and 26S proteasome. The standard BIACORE protocols were used for NTA chip (Ni/His-tag immobilization) and CM7 chip for compound interaction studies with slight modification described below. The x6 his-tagged USP14 and UCHL5 proteins were coupled to a Series S NTA BIACORE sensor chip in the BIACORE T200 using the his-tags for adherence of the proteins to the surface and an amine coupling procedure for covalent attachment to the chip surface. NTA chip was cleaned using three 500 μM EDTA injections followed by an injection of 500 μM Ni^2+ and activation of the chip surface with EDC/NHS injection according to BIACORE standard methods. Each chip has four separate areas, which were handled separately during the immobilization procedure. Area 1 was used as blank reference surface, area 2–4 was coupled with investigated recombinant proteins or complexes. Proteins were diluted in running buffer (10 mM HEPES, 150 mM NaCl, 0,005% Tween 20) to typically 10 μg/ml before injection(1 mL) over the prepared surfaces. […] The immobilization procedure was followed by injections of compound concentration series of VLX1570. Concentration series were set up with ×3 and ×2 dilution series ending with the highest concentration 200 μM for the consecutive measurements of changes of refractive index. Compounds were kept in stock concentrations of 10 mM in DMSO and diluted in running buffer down to the test concentration. Rmax and KD were calculated using Langmuir binding isotherms as provided in the Biacore software.
# OPM-2 = assay: MTT antiproliferative assay, OPM-2; assay type: cell-based; details: Homo sapiens, 72 hours
# Method: (§1) Cell viability was monitored by the MTT (3-(4,5-dimethylthiazol-2-yl)-2,5-diphenyltetrazolium bromide) assay. For the MTT assay, cells were suspended at 5 × 10^5 cells/ml, and 100 μl aliquots were dispended into 96-well microtiter plates and exposed to drugs as described using DMSO control. At the end of incubations, 10 μl of a stock solution of 5 mg/ml MTT (3-(4,5-dimethylthiazol-2-yl)-2,5-diphenyltetrazolium bromide), was added into each well, and the plates were incubated 4 hours at 37 °C. Formazan crystals were dissolved with 100 μl of 10% SDS/10 mM HCl solution overnight at 37 °C. Since MTT assays are affected by mitochondrial activity, and since OXPHOS is affected by VLX1570 (unpublished observation), we used the acid phosphatase method[49] to determine cell viability in some experiments. After washing twice with PBS, cells were lysed in 100 μl of 0.1 M sodium acetate, 0,1% Triton X-100, p-nitrophenylphosphate (Pierce Biotechnology Inc, Rockford, IL) and incubated for 90 min at 37 °C. At the end of the incubation, 10 μl NaOH was added to each well and A405 was determined.
# RPMI8226 tumors = assay: Subcutaneous RPMI8226 multiple myeloma model in mice; assay type: in vivo
# Method: Tissue sections were deparaffinized with xylene, rehydrated and microwaved and then incubated with primary antibodies diluted in 1% (wt/vol) BSA and visualized by standard avidin–biotin–peroxidase complex technique (Vector Laboratories, Burlingame, CA, USA). Counterstaining was performed with Mayer’s haematoxylin. Slides were mounted in Vectashield containing DAPI and images recorded in a Zeiss Axioplan 2 fluorescence microscope. Antibodies: KI67 Dako #M7240 (1:100)(using Rodent Block (Biocare-RBM961) and Envision Plus anti-mouse labeled polymer (Dako K4001); Ub-K48 (Millipore-05-1307) (1:100) (serum free Protein block (Dako-X0909)) and Envision + anti-rabbit labeled polymer (Dako-K4003); CXCR4 (Sigma-C3116) (1:400) (Dako-X0909) and Envision + anti-rabbit labeled polymer (Dako-K4003); cleaved casapse-3 (Cell Signaling-9664) (1:100) (Dako-X0909) and Envision + anti-rabbit labeled polymer (Dako-K4003).
# Two different multiple myeloma models were used. Experimental protocols and methods were performed by Accelera (Nerviano, Italy) in accordance with guidelines and with permission from the local ethics committee (Nerviano Medical Sciences (NMS) Ethic Committee). All experimental protocols were approved by the Nerviano Medical Sciences (NMS) Ethic Committee. Study director was Marina Ciomei. SCID female mice were obtained from Charles River, Italy. Body weights at the day of tumor implant were between 19 and 22 grams. Treatment started at day 7 after injection of tumor cells and continued for 10 consequtive days. Mice were monitored daily for mortality and clinical signs. In the KMS-11 model, antitumor efficacy was evaluated in terms of survival increase respect to control. In the RPMI8226 model, the growth of subcutaneous tumors was recorded. For imaging, mice were injected intraperitoneally with 150 mg/kg d-luciferin (Promega) followed by anesthetization in 2–3% isoflurane atmosphere. After 10–12 minutes of biodistribution time, mice were imaged using a charge coupled device (CCD camera, Xenogen IVIS Lumina System) to evaluate the bioluminescence in the animal. Nose-cone isoflurane delivery system and heated stage for maintaining body temperature were used. A gray-scale image of the mice was captured, followed by an overlay of a bioluminescence map representing the spatial distribution of photons detected from cleaved luciferin in the cancer cells expressing luciferase. Signal intensity was quantified using a customized version of the IGOR Pro version 4.09A Software (WaveMetrics, Inc., Lake Oswego, OR) called Living Image version 3.00 (Xenogen). Photon emission was measured as whole-body radiance and the individual regions of interest (ROIs) were manually selected. Data were expressed as photon/second/cm^2/steradian.
# RPMI8226 = assay: MTT antiproliferative assay, RPMI8226; assay type: cell-based; details: Homo sapiens, RPMI-8226, 72 hours
# Method: as §1
smiles,measurement,setting,value
C=CC(=O)N1CC/C(=C\c2ccc(F)c([N+](=O)[O-])c2)C(=O)/C(=C/c2ccc(F)c([N+](=O)[O-])c2)C1 [VLX1570],survival of the animals,[1],increased the survival
same,solubility compared to b-AP15,[2],improved solubility
same,Kd,USP14 [3],35 µM
same,IC50,proteasome DUB activity,~10 µM
same,Kd,"USP14 [4]; NTA chip, protein from Karolinska Institute Protein Science Facility, read-out: USP14(K) KD",18 µM
same,Kd,"USP14 [4]; NTA chip, protein from ProSpec, read-out: USP14(P) KD",8.1 µM
same,Kd,"USP14 [4]; NTA chip, protein from Ubiquigent, read-out: USP14(U) KD",1.5 µM
same,Kd,"USP14 [4]; two different sources of recombinant protein, Ni2+-histidine immobilisation, read-out: dissociation constant (KD) for binding to recombinant USP14",1.5 to 18 µM
same,IC50,OPM-2,0.126 ± 0.003 µM
same,tumor growth,"RPMI8226 tumors; 3 mg/kg, 10 consecutive days, subcutaneous RPMI8226",significant decrease in tumor growth
same,CXCR4 staining in tumors (immunohistochemistry),"RPMI8226 tumors; RPMI8226 tumors, 3 mg/kg",decreased CXCR4 staining
same,K48-linked ubiquitin chains in tumors,"RPMI8226 tumors; RPMI8226 tumors, 3 mg/kg",increases in K48-linked ubiquitin chains
same,active caspase-3 in tumors,"RPMI8226 tumors; RPMI8226 tumors, 3 mg/kg",increased active caspase-3
same,ERK phosphorylation in RPMI8226 cells in vivo,RPMI8226 tumors; after exposure of mice,decreased ERK phosphorylation
same,IC50,RPMI8226,0.074 ± 0.002 µM

# Reference: article PMC4893612 (Scientific Reports, 2016)
